Test results from patent US6737383B1, “Herbicidal oxadiazolidines” (priority 1999, dated 2004).

Columns and labels:
wild oat = experiment: Test B pre/postemergence wild oat; assay type: in vivo, Avena fatua
Summary of the method: (§1)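 Test chemicals in a non-phytotoxic solvent mixture with surfactant were sprayed preemergence onto planted seeds and postemergence onto plants 2 to 18 cm tall (1- to 4-leaf stage). After twelve to sixteen days in a greenhouse, injury was visually rated against untreated controls from 0 (no effect) to 10 (complete control).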

smallflower flatsedge = experiment: Test B flood test smallflower flatsedge; assay type: in vivo, Cyperus difformis
Summary of the method: (§2)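 Flood test on plants grown to the 2-leaf stage; treated plants kept in greenhouse twelve to sixteen days, then visually rated against controls on a 0 (no effect) to 10 (complete control) scale.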

blackgrass = experiment: Test B pre/postemergence blackgrass; assay type: in vivo, Alopecurus myosuroides
Summary of the method: as §1

giant foxtail = experiment: Test B pre/postemergence giant foxtail; assay type: in vivo, Setaria faberii
Summary of the method: as §1

bedstraw = experiment: Test B pre/postemergence bedstraw; assay type: in vivo, Galium aparine
Summary of the method: as §1

soybean = experiment: Test B pre/postemergence soybean; assay type: in vivo, Glycine max
Summary of the method: as §1

cocklebur = experiment: Test B pre/postemergence cocklebur; assay type: in vivo, Xanthium strumarium
Summary of the method: as §1

crabgrass = experiment: Test B pre/postemergence crabgrass; assay type: in vivo, Digitaria sanguinalis
Summary of the method: as §1

wheat = experiment: Test B pre/postemergence wheat; assay type: in vivo, Triticum aestivum
Summary of the method: as §1

corn = experiment: Test B pre/postemergence corn; assay type: in vivo, Zea mays
Summary of the method: as §1

morningglory = experiment: Test B pre/postemergence morningglory; assay type: in vivo, Ipomoea hederacea
Summary of the method: as §1

velvetleaf = experiment: Test B pre/postemergence velvetleaf; assay type: in vivo, Abutilon theophrasti
Summary of the method: as §1

surinam grass = experiment: Test B pre/postemergence surinam grass; assay type: in vivo, Brachiaria decumbens
Summary of the method: as §1

pigweed = experiment: Test B pre/postemergence pigweed; assay type: in vivo, Amaranthus retroflexus
Summary of the method: as §1

bamyardgrass = experiment: Test B flood test barnyardgrass; assay type: in vivo, Echinochloa crus-galli
Summary of the method: as §2

rice = experiment: Test B flood test rice; assay type: in vivo, Oryza sativa
Summary of the method: as §2

[1] = Postemergence, Rate 62 g/ha, scale 0 to 10, 0 is no effect, 10 is complete control
[2] = Postemergence, Rate 250 g/ha, scale 0 to 10, 0 no effect, 10 complete control
[3] = Preemergence, Rate 62 g/ha, scale 0 to 10 (0 no effect, 10 complete control)
[4] = Preemergence, Rate 125 g/ha, scale 0 to 10 (0 no effect, 10 complete control)
[5] = Preemergence, Rate 250 g/ha, scale of 0 to 10 where 0 is no effect and 10 is complete control
[6] = Preemergence, Rate 500 g/ha, scale 0 (no effect) to 10 (complete control)
[7] = Rate 125 g/ha, Postemergence, scale 0 to 10, 0 no effect, 10 complete control
[8] = Rate 500 g/ha, Postemergence, scale 0 to 10, 0 no effect, 10 complete control
[9] = Rate 125 g/ha, Postemergence section (flood test species), scale 0 to 10, 0 no effect, 10 complete control
[10] = Rate 500 g/ha, listed under Postemergence (flood test species), scale 0 to 10, 0 no effect, 10 complete control
[11] = flood test, listed under Postemergence, Rate 250 g/ha, scale 0 to 10, 0 no effect, 10 complete control

COc1cccc(C)c1-n1c(=O)on(C(=O)N(c2ccc(F)cc2F)C(C)C)c1=O [Compound 74]
Wild oats plant response rating (wild oat; [1]): 0
Wild oats plant response rating (wild oat; [2]): 0
Wild oats plant response rating (wild oat; [3]): 0
Plant response rating, Wild oats (wild oat; [4]): 0
Plant response rating, Wild oats (wild oat; [5]): 0
Wild oats plant response rating (wild oat; [6]): 0
Wild oats plant response rating (wild oat; [7]): 0
Wild oats plant response rating (wild oat; [8]): 2
S. Flatsedge plant response rating (smallflower flatsedge; [1]): 0
S. Flatsedge plant response rating (smallflower flatsedge; [9]): 0
S. Flatsedge plant response rating (smallflower flatsedge; [10]): 0
S. Flatsedge plant response rating (smallflower flatsedge; [11]): 0
Blackgrass plant response rating (blackgrass; [1]): 0
Blackgrass plant response rating (blackgrass; [2]): 0
Blackgrass plant response rating (blackgrass; [3]): 0
Plant response rating, Blackgrass (blackgrass; [4]): 0
Plant response rating, Blackgrass (blackgrass; [5]): 0
Blackgrass plant response rating (blackgrass; [6]): 0
Blackgrass plant response rating (blackgrass; [7]): 0
Blackgrass plant response rating (blackgrass; [8]): 3
Giant foxtail plant response rating (giant foxtail; [1]): 0
Giant foxtail plant response rating (giant foxtail; [3]): 3
Plant response rating, Giant foxtail (giant foxtail; [4]): 7
Plant response rating, Giant foxtail (giant foxtail; [5]): 8
Giant foxtail plant response rating (giant foxtail; [6]): 10
Giant foxtail plant response rating (giant foxtail; [7]): 0
Giant foxtail plant response rating (giant foxtail; [8]): 2
Bedstraw plant response rating (bedstraw; [1]): 0
Bedstraw plant response rating (bedstraw; [2]): 5
Bedstraw plant response rating (bedstraw; [3]): 0
Plant response rating, Bedstraw (bedstraw; [4]): 0
Plant response rating, Bedstraw (bedstraw; [5]): 0
Bedstraw plant response rating (bedstraw; [6]): 0
Bedstraw plant response rating (bedstraw; [7]): 0
Bedstraw plant response rating (bedstraw; [8]): 8
Soybean plant response rating (soybean; [1]): 0
Soybean plant response rating (soybean; [2]): 1
Soybean plant response rating (soybean; [3]): 0
Plant response rating, Soybean (soybean; [4]): 0
Plant response rating, Soybean (soybean; [5]): 0
Soybean plant response rating (soybean; [6]): 0
Soybean plant response rating (soybean; [8]): 1
Cocklebur plant response rating (cocklebur; [1]): 0
Cocklebur plant response rating (cocklebur; [2]): 0
Cocklebur plant response rating (cocklebur; [3]): 0
Plant response rating, Cocklebur (cocklebur; [4]): 0
Plant response rating, Cocklebur (cocklebur; [5]): 0
Cocklebur plant response rating (cocklebur; [6]): 0
Cocklebur plant response rating (cocklebur; [7]): 0
Cocklebur plant response rating (cocklebur; [8]): 4
Crabgrass plant response rating (crabgrass; [1]): 0
Crabgrass plant response rating (crabgrass; [2]): 4
Crabgrass plant response rating (crabgrass; [3]): 2
Plant response rating, Crabgrass (crabgrass; [4]): 2
Plant response rating, Crabgrass (crabgrass; [5]): 5
Crabgrass plant response rating (crabgrass; [6]): 8
Crabgrass plant response rating (crabgrass; [7]): 2
Crabgrass plant response rating (crabgrass; [8]): 7
Wheat plant response rating (wheat; [1]): 0
Wheat plant response rating (wheat; [2]): 0
Wheat plant response rating (wheat; [3]): 0
Plant response rating, Wheat (wheat; [4]): 0
Plant response rating, Wheat (wheat; [5]): 0
Wheat plant response rating (wheat; [6]): 0
Wheat plant response rating (wheat; [7]): 0
Wheat plant response rating (wheat; [8]): 3
Corn plant response rating (corn; [1]): 0
Corn plant response rating (corn; [2]): 0
Corn plant response rating (corn; [3]): 0
Plant response rating, Corn (corn; [4]): 0
Plant response rating, Corn (corn; [5]): 0
Corn plant response rating (corn; [6]): 0
Corn plant response rating (corn; [7]): 0
Corn plant response rating (corn; [8]): 0
Morningglory plant response rating (morningglory; [1]): 2
Morningglory plant response rating (morningglory; [2]): 3
Morningglory plant response rating (morningglory; [3]): 0
Plant response rating, Morningglory (morningglory; [4]): 0
Plant response rating, Morningglory (morningglory; [5]): 0
Morningglory plant response rating (morningglory; [6]): 0
Morningglory plant response rating (morningglory; [7]): 2
Morningglory plant response rating (morningglory; [8]): 4
Velvetleaf plant response rating (velvetleaf; [1]): 2
Velvetleaf plant response rating (velvetleaf; [2]): 4
Velvetleaf plant response rating (velvetleaf; [3]): 0
Plant response rating, Velvetleaf (velvetleaf; [4]): 0
Plant response rating, Velvetleaf (velvetleaf; [5]): 0
Velvetleaf plant response rating (velvetleaf; [6]): 0
Velvetleaf plant response rating (velvetleaf; [7]): 4
Velvetleaf plant response rating (velvetleaf; [8]): 4
B. signalgrass plant response rating (surinam grass; [1]): 0
B. signalgrass plant response rating (surinam grass; [2]): 0
B. signalgrass plant response rating (surinam grass; [3]): 0
Plant response rating, B. signalgrass (surinam grass; [4]): 0
Plant response rating, B. signalgrass (surinam grass; [5]): 0
B. signalgrass plant response rating (surinam grass; [6]): 0
B. signalgrass plant response rating (surinam grass; [7]): 0
B. signalgrass plant response rating (surinam grass; Rate 500 g/ha, Postemergence, scale of 0 to 10 where 0 is no effect and 10 is complete control): 2
Redroot pigweed plant response rating (pigweed; [1]): 0
Redroot pigweed plant response rating (pigweed; [2]): 0
Redroot pigweed plant response rating (pigweed; [3]): 0
Plant response rating, Redroot pigweed (pigweed; [4]): 0
Plant response rating, Redroot pigweed (pigweed; [5]): 0
Redroot pigweed plant response rating (pigweed; [6]): 3
Redroot pigweed plant response rating (pigweed; [7]): 0
Redroot pigweed plant response rating (pigweed; [8]): 0
Barnyardgrass plant response rating (bamyardgrass; [1]): 0
Barnyardgrass plant response rating (bamyardgrass; [9]): 0
Barnyardgrass plant response rating (bamyardgrass; [10]): 0
Barnyardgrass plant response rating (bamyardgrass; [11]): 0
Rice plant response rating (rice; [1]): 0
Rice plant response rating (rice; [9]): 0
Rice plant response rating (rice; [10]): 0
Rice plant response rating (rice; [11]): 0
